Measured values as given in ChEMBL document CHEMBL5725797, “Heterocyclic compounds and their use as glycogen synthase kinase-3 inhibitors” (2018).

Biological target: Glycogen synthase kinase-3 beta (Homo sapiens, UniProt P49841)
Assay: Biochemical hGSK-3Beta Assay: Compounds were tested for their ability to inhibit human Glycogen Synthase Kinase-3 beta (hGSK-3β) to phosphorylate biotin-[…](pS)EDEEE. Compounds were incubated with 0.5 μCi 33P-ATP, 10 μM ATP, 0.0125 U hGSK-3β (Upstate cell signaling solutions) and 1 μM substrate (biotin-[…](pS)EDEEE) in 50 mM HEPES, 10 mM MgCl2, 100 mM Na3VO4, 1 mM DTT, 0.0075% Triton, 2% DMSO (total volume 50 μL) for 30 minutes at room temperature. The incubation was stopped by addition of an equal volume of 100 mM EDTA, 4M NaCl. 80 μL of this mixture was added to streptavidin-coated Flash-plates (PerkinElmer). Following a wash step, 33P incorporation was quantified on a MicroBeta microplate liquid scintillation counter (Perkin Elmer). IC50s were determined by fitting a sigmoidal dose-response curve to the counts obtained at the different concentrations in GraphPad Prism.

Chain of Glycogen synthase kinase-3 beta (P49841 whole entry): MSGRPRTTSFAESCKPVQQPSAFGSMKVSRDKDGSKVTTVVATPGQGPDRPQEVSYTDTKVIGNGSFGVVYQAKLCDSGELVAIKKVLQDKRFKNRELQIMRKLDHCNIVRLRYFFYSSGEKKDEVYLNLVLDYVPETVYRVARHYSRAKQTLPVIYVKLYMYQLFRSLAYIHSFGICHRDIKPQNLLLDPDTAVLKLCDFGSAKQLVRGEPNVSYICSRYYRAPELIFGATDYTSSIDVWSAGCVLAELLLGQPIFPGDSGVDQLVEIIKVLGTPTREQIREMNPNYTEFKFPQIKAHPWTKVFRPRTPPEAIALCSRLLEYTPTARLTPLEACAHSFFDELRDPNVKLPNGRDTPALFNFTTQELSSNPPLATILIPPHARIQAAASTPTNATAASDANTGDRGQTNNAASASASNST

| SMILES | IC50 [nM] |
| --- | --- |
| N#Cc1ccc2c(c1)C(c1ccc3c(n1)CCCC3=O)C(=O)N2 (configuration not stated) | < 100 |
| N#Cc1ccc2c(c1)C(c1ccc3c(n1)C(O)CCC3)C(=O)N2 (configuration not stated) | < 100 |
